Tests used:
[1] = system: isolated myocardium of guinea-pigs (right ventricular papillary muscles); assay: Effects on the action potential duration in the isolated myocardium of guinea-pigs; assay type: cell-based, guinea-pigs (male, Hartley strain); settings: Cavia porcellus, 10 min, stimulated at 1 Hz, 37° C.; for APD90 prolongation (%) at 10 µM / inhibition at 10 µM: 10^-5 M, another 10 min; for inhibition at 10 µM / inhibition at 1 µM: read-out: Vmax inhibition (%); for APD90 prolongation (%) at 1 µM / inhibition at 1 µM: 10^-6 M, first 10 min
Experimental: Right ventricular papillary muscles were isolated from male guinea-pigs of Hartley strain weighing 300 to 400 g and fixed at the bottom of an acrylic bath with pins. They were perfused with Tyrode solution kept at 37° C. and saturated with a mixture of 95% O2 and 5% CO2. The muscles were stimulated at 1 Hz with rectangular pulses of 1 msec duration and supramaximal voltage. Action potentials were recorded using conventional glass microelectrodes filled with 3M KCl. The duration of the action potential and the maximum velocity of the upstroke of the action potential (Vmax) were determined. Each of the test compounds was included in Tyrode solution at 10^-6 or 10^-5 M and perfused.
The test compounds shown in Example 1 were as follows. Sotalol, a beta-adrenoceptor antagonist was employed as the reference drug because this compound is known to prolong the duration of the myocardial action potential.
Results are shown below in terms of APD90 prolongation (%) and Vmax inhibition (%).

[2] = Acute toxicity test, intravenous injection in mice; settings: mouse, in vivo, male ddy mice weighing 20 to 30 g
Experimental: Acute toxicity tests of typical compounds (the above-mentioned compounds A and B) of the present invention were conducted by applying them to male ddy mice weighing 20 to 30 g by intravenous injection.
Acute toxicity tests of typical compounds (the above-mentioned compounds A to E) of the present invention were conducted by applying them to male ddy mice weighing 20 to 30 g by intravenous injection.

| Compound | APD90 prolongation (%) at 10 µM [1] | inhibition at 10 µM [1] | APD90 prolongation (%) at 1 µM [1] | inhibition at 1 µM [1] | LD50 [2] |
| --- | --- | --- | --- | --- | --- |
| CC(C)NCC(O)c1ccc(NS(C)(=O)=O)cc1 (centres unmarked) [Sotalol, reference compound] | 7% | 0% | 0% | 0% |  |
| CS(=O)(=O)Nc1ccc(SC2CCN(CCc3cccnc3)CC2)cc1 [compound (1) A] | 20% | 0% | 11% | 0% | 180 to 400 mg/kg |
| CS(=O)(=O)Nc1ccc([S+]([O-])C2CCN(CCc3cccnc3)CC2)cc1 (centres unmarked) [compound (1) B] | 40% | 0% | 14% | 0% | 180 to 400 mg/kg |
| Cc1cccc(CCN(C)CC(=O)c2ccc(NS(C)(=O)=O)cc2)n1 [compound (2) A] | 16% | 0% | 12% | 0% |  |
| Cc1cccc(CCN(C)CCC(=O)c2ccc(NS(C)(=O)=O)cc2)n1 [compound (2) B] | 19% | 0% | 18% | 0% |  |
| Cc1cccc(CCN(C)CCCC(=O)c2ccc(NS(C)(=O)=O)cc2)n1 [compound (2) C] | 31% | 0% | 17% | 0% |  |
| CCN(CCCC(=O)c1ccc(NS(C)(=O)=O)cc1)CCc1cccc(C)n1 [compound (2) D] | 31% | 0% | 17% | 0% |  |
| Cc1cccc(CCN(C)CCCCC(=O)c2ccc(NS(C)(=O)=O)cc2)n1 [compound (2) E] | 27% | 0% | 14% | 0% |  |
| CS(=O)(=O)Nc1ccc(C(CO)N2CCC(C(=O)c3ccc(F)cc3)CC2)cc1 (centres unmarked) [compound (3) A] | 25% | 0% | 16% | 0% | 180 to 400 mg/kg |
| CS(=O)(=O)Nc1ccc(C(CO)N2CCC(C(=O)c3ccc(Cl)cc3)CC2)cc1 (centres unmarked) [compound (3) B] | 11% | 0% | 13% | 0% | 180 to 400 mg/kg |

Reference: patent publication US5162347A, “Piperidine derivatives and therapeutic and preventive agents for arrhythmia containing same” (Eisai Co., Ltd., priority 1987, dated 1992)
